Laboratory results taken from ChEMBL document CHEMBL1154198, “Chemical genetics of Plasmodium falciparum” (Nature, 2010).

What was measured:
Plasmodium falciparum [1] = experiment: ST_JUDE: Plasmodium falciparum K1 EC50 (uM) as measured by SYBR green dye; format: functional, organism-based
Plasmodium falciparum [2] = experiment: ST_JUDE: Plasmodium falciparum 3D7 EC50 (uM) as measured by SYBR green dye; format: functional, organism-based

Row | SMILES | EC50 (Plasmodium falciparum [1]) [µM] | EC50 (Plasmodium falciparum [2]) [µM]
1 | CCN1CCN(Cc2c(O)ccc3c(=O)c(Oc4cc(C)cc(C)c4)c(C(F)(F)F)oc23)CC1 | 0.204 | 0.514
2 | CN(C)CCn1c(=N)n(CC(O)c2ccc(Cl)c(Cl)c2)c2ccccc21 (configuration not stated) | 3.01 | 0.638
3 | Cc1ccnc(NC(c2cccc(OCc3ccccc3)c2)c2ccc3cccnc3c2O)c1 (configuration not stated) | 2.93 | 1.81
4 | CCN1/C(=C/c2cccc[n+]2C)Sc2ccc(C)cc21 | 0.436 | 0.738
5 | O=C1CC(c2ccc(O)cc2)C2=C(CC(c3ccccc3Cl)CC2=O)N1 (configuration not stated) | 1.41 | 2.43
6 | COc1ccccc1C1CC(c2ccccc2)=NN1C(=O)c1ccco1 (configuration not stated) | 4.33 | 0.594
7 | CN(C(=O)c1cc2c(s1)-c1ccccc1S(=O)(=O)C2)c1cccc(Cl)c1 | 1.05 | 0.711
8 | COc1cccc(C2=C(C(C)=O)Sc3nncn3N2C(C)=O)c1 | 3.43 | 3.01
9 | O=C(CSc1nccn1-c1ccc(F)cc1)Nc1cc(C(F)(F)F)ccc1Cl | 4.11 | 2.96
10 | CCc1nnc2n1NC(c1ccccc1)C(C(=O)Nc1ccccc1Cl)S2 (configuration not stated) | > 15 | > 15
11 | OC(CN1CCN(Cc2ccccc2)CC1)Cn1c2ccccc2c2ccccc21 (configuration not stated) | 1.15 | 2.64
12 | CCOc1cc(O)c(-c2[nH]nc(C)c2Oc2ccc(F)cc2)cc1CC | 3.55 | 2.51
13 | Cc1ccc(Cn2c(=N)n(CC(=O)c3ccc([N+](=O)[O-])cc3)c3ccccc32)cc1 | 10.4 | 7.64
14 | CCN1CCN(CCCNC(=O)c2ccc3c(c2)sc2nc(-c4ccc(OC)cc4)cn23)CC1 | 1.56 | 0.577
15 | CCCC(=O)N1CCN(c2ccc(NC(=O)c3cccc([N+](=O)[O-])c3)cc2Cl)CC1 | > 15 | > 15
16 | CC[n+]1c(C=C2C=CN(C)C=C2)ccc2cc(OC)ccc21 | 2.05 | > 15
17 | C=CCn1c(C)c(C=C2C(=O)NC(=S)NC2=O)c2ccccc21 | 1.4 | 1.69
18 | COc1cccc(C(=O)NC(NC(=S)Nc2ccccc2Cl)C(Cl)(Cl)Cl)c1 (configuration not stated) | 5.39 | 2.67
19 | CC(C)(C)c1ccc(C(=O)Nc2c3c(nn2-c2cccc(Cl)c2)CSC3)cc1 | > 15 | > 15
20 | CCOc1cccc(C2CC(=O)NC3=C2C(=O)CC(c2ccccc2Cl)C3)c1 (configuration not stated) | 3.11 | 3.72
21 | Cc1ccc2nc(-c3cccnc3)cc(C(=O)Nc3ccc(S(=O)(=O)NC(C)(C)C)cc3)c2c1 | > 15 | > 15
22 | CCCOc1cc(S(=O)(=O)n2ccnc2)ccc1Cl | > 15 | > 15

Row | SMILES | EC50 (Plasmodium falciparum [1]) [µM] | EC50 (Plasmodium falciparum [2]) [µM]
23 | Cc1cc(Br)ccc1OCCCCn1ccnc1 | > 15 | > 15
24 | COc1ccccc1CCN1C(=O)CCC1CCNCCOc1ccccc1 (configuration not stated) | > 15 | > 15
25 | CCN(CC)c1ccc(C(NC(=O)C(C)C)c2ccc3cccnc3c2O)cc1 (configuration not stated) | 5.82 | 4.85
26 | COc1cccc(C(=O)Nc2ccc(-c3nnc(-c4ccco4)o3)cc2)c1 | > 15 | > 15
27 | CN(C)CCNc1c2c(nc3ccccc13)CCC2 | > 15 | 3.96
28 | Nc1nc(Nc2ccc(Cl)c(Cl)c2)nc2ccccc12 | > 15 | 2.22
29 | O=C(N/N=C/c1cc(Br)cc([N+](=O)[O-])c1O)NC12CC3CC(CC(C3)C1)C2 | 0.959 | > 15
30 | CCCC(=O)NC(c1ccc(OC)cc1)c1ccc2cccnc2c1O (configuration not stated) | 2.65 | 1.65
31 | Cc1ccc(S(=O)(=O)NCC(c2cccnc2)N2CCN(c3ccc(F)cc3)CC2)cc1 (configuration not stated) | 9.43 | > 15
32 | Cc1c(C(=O)Nc2ccc(Cl)cc2Cl)cccc1[N+](=O)[O-] | > 15 | > 15
33 | Oc1c(CN2CCCCC2)cc(Br)c2cccnc12 | 2.32 | 3.42
34 | COC(=O)c1c(S(=O)(=O)NCc2ccccc2)sc2c1CCN(Cc1ccc(OC)cc1)C2 | > 15 | > 15
35 | Cc1c(Cl)cccc1NC(=O)Nc1ccc(Cl)c(Cl)c1 | > 15 | 4.13
36 | Cc1ccc2nc3c(cc(C(=O)NC(C)c4ccccc4)c(=N)n3CC3CCCO3)c(=O)n2c1 (configuration not stated) | > 15 | > 15
37 | CCCN(CCC)CCCNC(=O)c1cc2c(-c3cccc(OC)c3)nn(C)c2s1 | 7.45 | 2.15
38 | CCCC1=Nc2cc(C(=O)N3CCN(C(=O)OCC)CC3)ccc2Sc2ccc(C)cc21 | > 15 | > 15
39 | CC(=O)Nc1ccc(NC(=O)CSc2nn3c(=O)c(C)nnc3s2)cc1 | 4.96 | > 15
40 | Cc1ccc2nc(NNC(=O)c3ccc(S(=O)(=O)N(C)C)cc3)sc2c1 | 5.39 | 5.03
41 | COc1ccc(-c2cc(=O)oc3c4c(ccc23)OCN(Cc2ccc(F)cc2)C4)cc1 | 1.06 | 5.21
42 | COc1ccc(CN2CCCN(C)CC2)cc1OCCC1CCCCN1C(=O)/C=C/c1cccs1 (configuration not stated) | 1.48 | 3.98
43 | CCOC(=O)c1ccc2nc(C)c(CN3CCN(C(c4ccccc4)c4ccccc4)CC3)c(O)c2c1 | > 15 | > 15
44 | O=C(NCCc1cccc(C(F)(F)F)c1)Nc1cc(C(F)(F)F)ccc1Cl | 2.37 | 3.09

Row | SMILES | EC50 (Plasmodium falciparum [1]) [µM] | EC50 (Plasmodium falciparum [2]) [µM]
45 | CCN1CCN(CCCNC(=O)c2ccc3c(c2)sc2nc(-c4ccc(C)cc4)cn23)CC1 | 1.89 | 1.14
46 | CCOc1ccc(Nc2nc(NCc3ccco3)c3ccccc3n2)cc1 | 2.64 | 1.19
47 | COc1ccccc1OCCCCN1CCCC1 | > 15 | > 15
48 | CCOc1ccc(NC2=C(NCCO)C(=O)c3ccccc3C2=O)cc1 | 4.88 | 3.54
49 | Oc1ccc(Cl)cc1CN1CCN(Cc2ccccc2)CC1 | 0.486 | 1.02
50 | Cc1ccc(NC(=O)c2ccc(Br)o2)c(Br)c1 | > 15 | > 15
51 | Cc1ccc(-c2cc(-c3cc(Cl)ccc3O)[nH]n2)cc1 | 2.92 | 5.01
52 | CCOc1ccccc1CNC(=O)C1c2ccccc2C(=O)N(CC(C)C)C1c1cccs1 (configuration not stated) | 1.49 | 1.43
53 | CC(C)C(=O)N1CCN(c2ccc([N+](=O)[O-])c(NC3CC3)c2)CC1 | 6.77 | 4.46
54 | COc1ccc(NC(=O)COc2c(C)cc(Br)cc2C)c(OC)c1 | 5.44 | > 15
55 | O=C(Nc1cccc(Br)c1)c1cc2ccccc2cc1O | 0.57 | > 15
56 | Oc1c(CN2CCN(c3cccc(Cl)c3)CC2)cc(Br)c2cccnc12 | > 15 | 0.88
57 | CCCN1C(=O)c2[nH]nc(-c3c(C)cc(C)cc3O)c2C1c1ccc(OC)c(OC)c1 (configuration not stated) | > 15 | > 15
58 | Oc1ccc(Nc2nc(NCc3ccccc3)c3ccccc3n2)cc1 | > 15 | 0.203
59 | Oc1c(C(Nc2ccccn2)c2ccc(Cl)c(Cl)c2)ccc2cccnc12 (configuration not stated) | 4.36 | 1.34
60 | CCO/C(O)=C1\C(C)=NC2=C(C(=O)CC(c3ccccc3)C2)C1c1ccc(Cl)cc1 (configuration not stated) | 6.69 | 3.85
61 | Cc1ccc2ccc(C(Nc3ccccn3)c3ccccc3Br)c(O)c2n1 (configuration not stated) | 1.32 | 1.49
62 | COc1ccc(CCNC(=S)Nc2ccccc2C)cc1OC | 3.96 | 3.75
63 | O=C(O)c1cccc(NC2=C(N3CCCCC3)C(=O)c3ccccc3C2=O)c1 | 4.82 | > 15
64 | O=C1c2ccccc2/C(=N/Nc2ccc([N+](=O)[O-])cc2)C1c1cc(Br)ccc1[N+](=O)[O-] (configuration not stated) | 3.57 | 6.75
65 | CCc1cc(-c2[nH]nc(C)c2Oc2ccc(Cl)cc2)c(O)cc1OC | 3.2 | 4.85
66 | O=C(O)c1ccc(S(=O)(=O)NC2=C/C(=N\S(=O)(=O)c3ccccc3)C(=O)c3ccccc32)cc1 | > 15 | > 15

Row | SMILES | EC50 (Plasmodium falciparum [1]) [µM] | EC50 (Plasmodium falciparum [2]) [µM]
67 | CCOC(=O)C1CCN(C(=O)CN(Cc2ccc(Cl)cc2)S(=O)(=O)c2ccc(C)cc2)CC1 | 2.18 | > 15
68 | CCOC(=O)C1=C(C)N=c2s/c(=C\c3ccc(O)cc3)c(=O)n2C1c1ccc(OC)c(OC)c1 (configuration not stated) | 1.4 | > 15
69 | C#CC[n+]1ccn2c(C)ccc2c1C | 1.69 | 5.58
70 | COc1ccc(C)c2sc(N(Cc3cccnc3)C(=O)c3ccc(C#N)cc3)nc12 | > 15 | > 15
71 | Cc1cc(N2CCN(C)CC2)nc(N2CCN(C(=O)c3ccc(C(C)(C)C)cc3)CC2)n1 | > 15 | > 15
72 | Cc1nc2sc(C(c3ccc(Cl)c(Cl)c3)N3CCN(C)CC3)c(O)n2n1 (configuration not stated) | > 15 | > 15
73 | CN(C)c1ccc(Nc2nc(-c3cccnc3)nc3ccccc23)cc1 | 5.08 | > 15
74 | CCC(=O)NC(c1ccccc1OC)c1ccc2cccnc2c1O (configuration not stated) | 4.28 | 2.27
75 | COc1ccc2ncc(C(=O)c3ccccc3)c(N3CCN(C)CC3)c2c1 | > 15 | > 15
76 | CCCc1cc(O)nc(-n2nc(C)cc2NC(=O)c2cccc(C)c2)n1 | > 15 | 2.22
77 | CCOC(=O)c1cnc2ccc(OC)cc2c1NCc1ccccc1 | > 15 | 2.77
78 | O=C(N/N=c1/oc2ccc(Br)cc2cc1-c1nc2ccccc2[nH]1)c1ccncc1 | > 15 | 4.71
79 | CCOC(=O)c1cnc2c(C)c(C)ccc2c1Nc1cc([N+](=O)[O-])ccc1O | > 15 | > 15
80 | Cc1ccc(Nc2cc(C)nc(-n3cc([N+](=O)[O-])cn3)n2)cc1 | > 15 | 7.25
81 | Clc1cccc(/C=N/Nc2[nH]cnc3ncnc2-3)c1 | 3.65 | 2.31
82 | Cc1ccc(O)c(NC(=O)c2noc3c2CC(C(C)(C)C)CC3)c1 (configuration not stated) | 0.483 | > 15
83 | C=CCOC(=O)C1=C(C)N=C2CCCC(O)=C2C1c1ccc(OCC)c(OC)c1 (configuration not stated) | 5.26 | > 15
84 | O=C(CSc1ccc2nnc(-c3cccc(F)c3)n2n1)Nc1cccc(F)c1 | 1.08 | > 15
85 | CC[n+]1c(C=C2C=CN(C)C=C2)ccc2cc(C)ccc21 | 0.469 | 2.8
86 | O=[N+]([O-])c1cccc(-c2cn(-c3ccccc3)c3[n+]2CCCS3)c1 | 3.91 | 2.28
